Measured values published in US20060194814A1, “Benzamide compounds” (priority 2003, published 2006).
Counter-ions that a name gives are not always drawn.

What was measured:
[1] = tested on: Y1 mouse adrenal tumor cells; assay: dbcAMP-induced 20á-hydroxyprogesterone synthesis in Y1 cells; format: cell-based; details: Y1 cells
Experimental: Culture media were then changed and cells were stimulated with 1 mM dbcAMP and the treatment for 24 to 48 hours. […] The synthesis of 20 —OH progesterone and progesterone in Y1 and MA-10 cell media respectively were measured by RIA (Brown et al., 1992). H295R human adrenal tumor cells were seeded in 48-well plates at 10^5 cells/well and incubated for 24 hours. […] At the end of the incubation time period, cells were treated with 1 mM dbcAMP for 48 hours. Cortisol levels in the media were determined by radioimmunoassay as previously described (Amri et al., 1996).

[2] = biological target: T1, peripheral-type benzodiazepine receptor (PBR) (Mus musculus, UniProt P50637); assay: PBR radioligand binding ([3H]PK 11195) in procaine-treated cells; details: 1 μM procaine, 48 hour treatment; radioligand [3H]PK 11195
T1 construct: endogenous in cells; Y1 inferred from context
Experimental: Radioligand binding assays were performed as previously described (Papadopoulos et al., 1990, J. Biol. Chem. 265, 3772-3779). In brief, cells were scrapped from culture flasks into PBS, dispersed by trituration, and centrifuged at 1200×g for 5 min. The cells were resuspended in PBS to a final concentration of 10-50 μg protein/100 μl. Saturation binding studies were performed in a final volume of 300 μl in the presence of the radioligand [^3H]PK 11195 (specific activity 83.5 Ci/mmol; NEN Life Science Products) at the indicated concentrations. Nonspecific binding was determined in the presence of 6 μM of the homologous non-radioactive ligand. After 180 min incubation at 4° C., the assays were stopped by filtration through Whatman GF/C filters (Clifton, N.J.) and washed with 10 ml PBS. Bound radioactivity was determined by liquid scintillation counting. Bound [^3H]PK 11195 and [^3H]cholesterol were quantified by liquid scintillation spectrometry. Dissociation constants (Kd), the number of binding sites (Bmax) and Hill coefficients (nH) for PK 11195 and cholesterol were determined by Curve-Fit (Prism version 3.0, GraphPad Software Inc., San Diego, Calif.).

[3] = biological target: T2, HMG-CoA reductase (Mus musculus, UniProt Q01237); assay: Direct effect on HMG-CoA reductase activity in sonicated Y1 cell homogenates; format: biochemical; details: sonicated Y1 cells
T2 construct: endogenous in cells; host or cells: Y1 mouse adrenal tumor cells
T2 sequence (Q01237 1-887): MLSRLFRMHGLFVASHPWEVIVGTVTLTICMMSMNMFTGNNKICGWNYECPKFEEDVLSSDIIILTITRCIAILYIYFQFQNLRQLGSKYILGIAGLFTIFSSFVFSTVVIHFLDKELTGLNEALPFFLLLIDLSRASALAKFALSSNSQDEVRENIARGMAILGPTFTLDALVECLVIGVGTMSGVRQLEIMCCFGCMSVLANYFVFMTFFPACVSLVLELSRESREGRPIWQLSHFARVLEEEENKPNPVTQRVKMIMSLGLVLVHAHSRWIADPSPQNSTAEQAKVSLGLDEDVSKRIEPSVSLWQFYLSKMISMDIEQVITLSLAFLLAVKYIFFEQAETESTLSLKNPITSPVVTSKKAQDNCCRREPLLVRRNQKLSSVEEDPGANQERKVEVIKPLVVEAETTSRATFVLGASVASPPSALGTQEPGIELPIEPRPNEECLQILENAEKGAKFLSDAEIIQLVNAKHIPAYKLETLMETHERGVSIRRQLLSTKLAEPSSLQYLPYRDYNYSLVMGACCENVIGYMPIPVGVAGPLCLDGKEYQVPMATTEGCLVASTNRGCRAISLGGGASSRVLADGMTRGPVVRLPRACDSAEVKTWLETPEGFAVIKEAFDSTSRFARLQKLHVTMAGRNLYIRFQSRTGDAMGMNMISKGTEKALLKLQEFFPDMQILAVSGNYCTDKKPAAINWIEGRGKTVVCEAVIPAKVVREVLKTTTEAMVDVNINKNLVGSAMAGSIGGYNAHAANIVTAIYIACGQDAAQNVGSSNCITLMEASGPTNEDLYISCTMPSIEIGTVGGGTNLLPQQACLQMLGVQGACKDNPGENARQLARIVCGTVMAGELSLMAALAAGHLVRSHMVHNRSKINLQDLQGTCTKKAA
Experimental: Cells were washed twice with ice-cold PBS and incubated with ice-cold assay buffer (0.1M sucrose, 40 mM KH2PO4, 30 mM EDTA, 50 mM KCl, 5 mM DTT, 0.25% (v/v) of Brij 96, at pH 7.4) on ice for 20 minutes. After centrifugation for 3 minutes at 14000 g (4° C.) the supernatants were collected and used for HMG-CoA reductase activity assay. The total 150 l assay mixture contained 100-200 g protein and the NADPH-generating system (2.5 mM NADP, 20 mM glucose 6-phosphate and 20 U/ml glucose 6-phosphate dehydrogenase). The reaction was started by adding substrate (^14C-HMG-CoA, 0.1 Ci) and stopped after 45 minutes by adding 10-1 of HCl 6M. ^3H-mevalonolactone was also added to the samples as an extraction recovery marker. After an additional 30 minutes incubation time, to allow complete lactonization of the product, the mixture was centrifuged. The supernatant was applied to Bond-Elut NH2 column and eluted with 1 ml of toluene/acetone (3:1). The eluate was discarded and further 4 ml of toluene/acetone was applied to the column and collected in a scintillation vial for counting ^14C-mevalonate and ^3H-mevalonolactone signals (Berkhout et al., 1990).
In separate experiments cells were disrupted by sonication and then treated with procaine. The direct effect of the treatment on HMG-CoA reductase activity in the homogenates was determined as described above.

Compound: CCN(CC)CCOC(=O)c1ccc(N)cc1 [SP01, procaine HCl]
- effect on dbcAMP-induced 20á-hydroxyprogesterone production [1]: decreased in a dose-dependent manner
- lowest concentration inhibiting cAMP-induced steroid synthesis [1]: 0.1 µM
- inhibition of dbcAMP-stimulated steroid formation ([1]; procaine at 1 M / 1 iM): 90%
- Bmax of PBR ligand binding in procaine-treated cells [2]: 29±4 pmol/mg protein
- direct effect on HMG-CoA reductase activity [3]: No direct effect
- HMG-CoA reductase activity ([3]; 1 μM procaine): 9.9±0.01 pmol/min/mg protein
- HMG-CoA reductase activity ([3]; 10 μM procaine): 10.3±0.6 pmol/min/mg protein
- HMG-CoA reductase activity ([3]; 100 μM procaine): 10.1±0.1 pmol/min/mg protein
